Laboratory results as given in patent publication US7727980B2, “Tricyclic androgen receptor modulator compounds and methods” (priority 2001, dated 2010).
Read-outs that look alike come from different tables or passages of the source.

Tests used:
[1] = biological target: T1, human AR (Homo sapiens, UniProt P10275); test: Co-transfection assay, AR agonist activity, CV-1 cells; type: cell-based; design: expressed in transfected cells; host or cells: CV-1 cells (African green monkey kidney fibroblasts), transient transfection with pRShAR; details: for AR Agonist CV-1 Cells Efficacy (%): percent maximal response relative to reference agonist DHT
T1 sequence (P10275 1-920): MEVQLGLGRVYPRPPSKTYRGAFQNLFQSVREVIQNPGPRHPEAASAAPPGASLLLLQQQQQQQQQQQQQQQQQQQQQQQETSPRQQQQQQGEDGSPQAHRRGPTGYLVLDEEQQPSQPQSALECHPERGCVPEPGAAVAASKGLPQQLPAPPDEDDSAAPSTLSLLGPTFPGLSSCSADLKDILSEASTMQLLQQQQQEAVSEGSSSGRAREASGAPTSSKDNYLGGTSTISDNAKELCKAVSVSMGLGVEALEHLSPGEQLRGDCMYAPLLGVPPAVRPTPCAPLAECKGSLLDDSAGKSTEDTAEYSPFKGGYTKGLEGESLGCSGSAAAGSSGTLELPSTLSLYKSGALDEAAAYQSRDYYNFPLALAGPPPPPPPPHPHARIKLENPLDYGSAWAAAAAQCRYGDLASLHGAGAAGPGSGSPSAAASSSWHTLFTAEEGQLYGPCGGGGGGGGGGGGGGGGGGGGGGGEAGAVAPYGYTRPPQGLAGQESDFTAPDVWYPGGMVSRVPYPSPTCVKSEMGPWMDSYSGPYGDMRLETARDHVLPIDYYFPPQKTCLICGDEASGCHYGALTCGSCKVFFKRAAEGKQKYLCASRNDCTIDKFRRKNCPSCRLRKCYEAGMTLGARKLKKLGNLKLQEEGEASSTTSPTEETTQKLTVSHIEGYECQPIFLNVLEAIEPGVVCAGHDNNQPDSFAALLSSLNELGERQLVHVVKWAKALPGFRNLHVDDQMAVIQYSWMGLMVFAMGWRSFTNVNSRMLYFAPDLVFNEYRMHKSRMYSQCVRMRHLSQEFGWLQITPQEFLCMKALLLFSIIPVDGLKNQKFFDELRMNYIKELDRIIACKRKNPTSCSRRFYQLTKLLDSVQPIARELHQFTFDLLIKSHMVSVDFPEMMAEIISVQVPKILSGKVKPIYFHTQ

[2] = biological target: T1, human AR; test: Co-transfection assay, AR antagonist activity in presence of DHT, CV-1 cells; type: cell-based; design: expressed in transfected cells; host or cells: CV-1 cells (African green monkey kidney fibroblasts), transient transfection with pRShAR; details: for AR Antagonist CV-1 Cells Efficacy (%): percent maximal inhibition, DHT at its EC50 concentration
[3] = biological target: T1, human AR; test: AR whole cell competitive binding assay (3H-DHT), transfected COS-1 cells; design: expressed in transfected cells; transient transfection with pRShAR
[4] = AR Agonist CV-1 Cells Potency (nM), agonist potency or EC50
[5] = AR Antagonist CV-1 Cells Potency (nM), CV-1 cells, antagonist potency or IC50, DHT at its EC50 concentration
[6] = AR Binding Ki (nM), COS-1 cells, 1 nM 3H-DHT, Cheng-Prusoff from IC50

Molecule	EC50 [1, 4] [nM]	AR Agonist CV-1 Cells Efficacy (%) [1] [%]	IC50 [2] [nM]	AR Antagonist CV-1 Cells Efficacy (%) ([2]; CV-1 cells)	Ki ([3]; read-out: AR Binding Ki) [nM]	IC50 [2, 5] [nM]	Ki [3, 6] [nM]	EC50 ([1]; agonist potency or EC50, read-out: AR Agonist CV-1 Cells Potency) [nM]	IC50 ([2]; CV-1 cells, antagonist potency or IC50, DHT at its EC50 concentration, read-out: AR Antagonist CV-1 Cells Potency) [nM]	Ki ([3]; COS-1 cells, 1 nM 3H-DHT, Cheng-Prusoff from IC50, read-out: AR Binding Ki) [nM]
CC1C(c2ccc(N(C)C)cc2)c2c(ccc3[nH]c(=O)cc(C(F)(F)F)c23)N1CC(F)(F)F (racemic) [Compound 137, (±)-5,6-cis-Dihydro-5-(4-dimethylaminophenyl)-6-methyl-7-(2,2,2-trifluoroethyl)-4-trifluoromethyl-7H-pyrrolo[3,2-f]quinolin-2(1H)-one]	145	77	> 10000	na (na = not active (i.e. efficacy of <20 and potency of >10,000))	107					
CCC1(CC)CCc2c(ccc3[nH]c(=O)cc(C(F)(F)F)c23)N1 [Compound 105, 5,6,7,8-Tetrahydro-7,7-diethyl-4-trifluoromethylpyridino[3,2-f]quinolin-2(1H)-one]	32	57		na (na = not active (i.e. efficacy of <20 and potency of >10,000))		> 10000	45			
CC1c2c(ccc3[nH]c(=O)cc(C(F)(F)F)c23)N(CC(F)(F)F)C1C (racemic) [Compound 123, (±)-5,6-Dihydro-5,6-cis-dimethyl-7-(2,2,2-trifluoroethyl)-4-trifluoromethyl-7H-pyrrolo[3,2-f]quinolin-2(1H)-one]	1.4	104		na (na = not active (i.e. efficacy of <20 and potency of >10,000))		> 10000	14			
5-Ethyl-6-propyl-7-(2,2,2-trifluoroethyl)-4-trifluoromethyl-7H-pyrrolo[3,2-f]quinolin-2(1H)-one [Compound 155]		59		na (na = not active (i.e. efficacy of <20 and potency of >10,000))				9.4	> 10000	7.4
CCN1c2ccc3[nH]c(=O)cc(C(F)(F)F)c3c2CCC1(C)C [Compound 108, 8-Ethyl-5,6,7,8-tetrahydro-7,7-dimethyl-4-trifluoromethylpyridino[3,2-f]quinolin-2(1H)-one]		66		na (na = not active (i.e. efficacy of <20 and potency of >10,000))		> 10000	6.7			
